In data set [1] the test system is primary cultured guinea-pig urinary bladder (GPB) cells. Briefly: Membrane hyperpolarization (MHP) assay, DiBAC(4)3 / FLIPR. In kind it is cell-based. Particulars: for EC50: concentration that elicits 50% of the maximal response for the test sample. A digest of the protocol:
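Primary smooth-muscle cells from male guinea-pig bladder, grown to confluence, loaded 30 min at 37° C with 5 μM DiBAC(4)3 in HEPES buffer pH 7.4. Fluorescence drop on FLIPR followed 25 min after compound; steady-state hyperpolarization normalized to 10 μM P1075 (100%), EC50 from four-parameter fit of five concentrations.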

For data set [2], the system named is tissue strips obtained from Landrace pig bladders. Briefly: Functional potassium channel opening activity in isolated bladder strips (field-stimulated twitch). The conditions noted are these: for Index: ED50 for P1075 divided by ED50 for the test agonist in a given tissue, averaged; for EC50: amount of agent necessary to cause 50% of the agent's maximal response, read-out: ED50 (the source's name); for Efficacy (% P1075) / Emax: maximal efficacy relative to P1075, field stimulation 0.05 Hz, 0.5 ms, 20 volts. The method in brief: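 Mucosa-free female Landrace pig bladder strips in Krebs Ringer bicarbonate (pH 7.4, 37° C., 0.004 mM propranolol), 1.0 g preload, field-stimulated at 0.05 Hz, 0.5 ms, 20 V for twitch. Cumulative concentration-response curves; maximal efficacy as % of P1075, ED50 fitted, potency index = P1075 ED50/test ED50 per tissue, averaged.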

For data set [3], the system named is bladder contractions in male CD rats. Description: In vivo bladder efficacy protocol (isovolumetric contractions model). Details: species or system rat. The conditions noted are these: iv, cumulative doses; dose reducing area under the curve of bladder contractions by 30% relative to control; urethane-anesthetized rats. The text has this:
The utility of compounds of the present invention for the treatment of urinary incontinence, bladder overactivity, and bladder instability is illustrated by the ability of compounds of the present invention to inhibit bladder contractions in vivo. The following method is illustrative of the in vivo bladder efficacy of compounds of the present invention.
Male CD rats (400-450 g) were anesthetized with urethane (0.6 g/kg ip+0.6 g/kg sc). The left femoral vein was cannulated with polyethylene (PE-50) tubing for the administration of test compound. A third polyethylene catheter (PE-60) was inserted 3-4 mm into the apex of the bladder dome and secured using a 5-0 silk purse string suture. The bladder was emptied via this catheter and additionally by applying slight manual pressure on the lower abdomen. The urinary catheter was connected using a Y-tube connector to both a pressure transducer and a syringe pump. The urethra was then ligated using 4-0 silk suture and the bladder was slowly filled using a constant infusion of room temperature saline at the rate of 0.1 mL/min until spontaneous rhythmic contractions were evident (1.0-1.3 mL). After the contractions stabilized to a consistent pattern, bladder pressure was monitored for 20 minutes before and after a dose of the vehicle (equal parts of β-cyclodextrin stock solution (100 g β-cyclodextrin dissolved in 200 mL) and sterile water) alone. Then three doses of a test compound were administered cumulatively intravenous (iv) at 20 minute intervals. Each dosing solution (1 mL/kg) was warmed to body temperature before dosing and was infused over 3 minutes to minimize dosing artifacts on the bladder pressure trace. Data were averaged over the last 10 minutes of each period and presented as percent change from control. Area under the curve of the bladder contractions was determined from the respective waveforms using a Modular Instruments, Inc. computerized data acquisition system and averaged over the last ten minutes of each twenty minute period. The doses required to reduce the area under the curve of the bladder contractions by 30% (AUC ED30%) relative to control were estimated using a customized Excel spreadsheet.

Setting [4] is: Cavia porcellus, maximal steady-state hyperpolarization, normalized to response with 10 μM P1075 (100%).

The values that follow come from US20020028836A1, “Potassium channel openers” (priority 2000, published 2002).

Structures are written as SMILES. Where two headings read alike, the source gives them in different places.

Turning to `C=CCC(C)(C)C(NC(=O)c1ccc(Cl)cc1)NC(=NC#N)Nc1cccnc1` (single isomer, unassigned; (+)) [Example 91, (+) 4-chloro-N-(1-{[(cyanoimino)(3-pyridinylamino)methyl]amino}-2,2-dimethyl-4-pentenyl)benzamide], the EC50 in data set [1] came to 2.9 µM. Also, the “Maximal Response (% P1075)” value in data set [1] (maximal steady-state hyperpolarization, normalized to response with 10 μM P1075 (100%)) is 68 % P1075. In data set [2], the Index stood at 0.360, the EC50 amounted to 0.83 µM and the “Efficacy (% P1075)” value was found to be 46 % P1075. Moreover, in data set [3], the “AUC EC30” value is more than 10 µmol/kg.

Consider `Cc1ccc(C(=O)NC(NC(=NC#N)Nc2cccnc2)C(C)(C)C)cc1` (stereo not drawn) [Example 51, N-(1-{[(cyanoimino)(3-pyridinylamino)methyl]amino}-2,2-dimethylpropyl)-4-methylbenzamide], for which, in data set [1] (setting [4]), the Emax came to 88%. Moreover, the EC50 in data set [1] turned out to be 0.57 µM; in data set [2] (Sus scrofa), 17 µM. The same molecule gave an Index in data set [2] of 0.006. In addition, the “Efficacy (% P1075)” value in data set [2] stood at 100 % P1075. Besides, in data set [3], the “AUC EC30” value was determined as 0.28 µmol/kg.

On to `CC(C)(C)C(NC(=O)c1ccc(Cl)cc1)NC(=NC#N)Nc1cccnc1` (stereo not drawn) [Example 52, 4-chloro-N-(1-{[(cyanoimino)(3-pyridinylamino)methyl]amino}-2,2-dimethylpropyl)benzamide], for which the EC50 in data set [1] (Cavia porcellus) is 0.27 µM; in data set [2] (Sus scrofa), 19 µM. The Emax in data set [1] (setting [4]) and in data set [2] (Sus scrofa) was 72% throughout. Besides, in data set [2], the Index turned out to be 0.012. The “AUC EC30” value in data set [3] was 0.78 µmol/kg.

Turning to `Cc1ccc(C(=O)NC(NC(=NC#N)Nc2ccccc2)C(Cl)(Cl)Cl)cc1` (stereo not drawn) [Example 46, N-(1-{[anilino(cyanoimino)methyl]amino}-2,2,2-trichloroethyl)-4-methylbenzamide], the EC50 in data set [1] (Cavia porcellus) came to 0.04 µM; in data set [2] (Sus scrofa), 5 µM. The Emax in data set [1] (setting [4]) was 105%; in data set [2] (Sus scrofa) it was 84%. This molecule returned an Index in data set [2] of 0.015. For the same molecule, in data set [3], the “AUC EC30” value turned out to be 0.70 µmol/kg.

Take `CC(Cl)(Cl)C(NC(=O)c1cccc(Cl)c1)NC(=NC#N)Nc1ccc(Cl)nc1` (stereo not drawn) [Example 153, 3-chloro-N-(2,2-dichloro-1-{[[(6-chloro-3-pyridinyl)amino](cyanoimino)methyl]amino}propyl)benzamide]: the Index in data set [2] was 0.014. In data set [2] (Sus scrofa), the EC50 amounted to 4.9 µM and the Emax came to 93%. The “AUC EC30” value in data set [3] was 1 µmol/kg.

Consider `CC(C)(C)CC(NC(=O)c1ccc(Cl)cc1)NC(=N[N+](=O)[O-])Nc1cccnc1` (single isomer, unassigned; (-)) [Example 126, (−) 4-chloro-N-(1-{[(nitroimino)(3-pyridinylamino)methyl]amino}-3,3-dimethylbutyl)benzamide], for which, in data set [2], the Index is given as 0.096, the EC50 was found to be 3.8 µM and the “Efficacy (% P1075)” value came out at 94 % P1075. For the same molecule, the “AUC EC30” value in data set [3] came to 13.5 µmol/kg.

On to `CC(Cl)(Cl)C(NC(=O)c1ccc(Cl)cc1)NC(=NC#N)Nc1ccc(Cl)nc1` (stereo not drawn) [Example 160, 4-chloro-N-(2,2-dichloro-1-{[[(6-chloro-3-pyridinyl)amino](cyanoimino)methyl]amino}propyl)benzamide], for which, in data set [2], the Index amounted to 0.221 and the EC50 came out at 0.69 µM. The Emax in data set [2] (Sus scrofa) amounted to 98%. Also, the “AUC EC30” value in data set [3] stood at 1.7 µmol/kg.

Molecule `CC(C)(Cc1ccccc1)C(NC(=O)c1ccc(Cl)cc1)NC(=N[N+](=O)[O-])Nc1cccnc1` (stereo not drawn) [Example 128, 4-chloro-N-(1-{[(nitroimino)(3-pyridinylamino)methyl]amino}-2,2-dimethyl-3-phenylpropyl)benzamide] gave a melting point of 205 to 207 °C. The molecule further yielded an EC50 in data set [1] (Cavia porcellus) of 0.47 µM. The molecule also showed an Emax in data set [1] (setting [4]) of 116%.

Regarding `CN(C)CC(C)(C)C(NC(=O)c1ccc(Cl)cc1)NC(=NC#N)Nc1cccnc1` (stereo not drawn) [Example 97, 4-chloro-N-[1-{[(cyanoimino)(3-pyridinylamino)methyl]amino}-3-(dimethylamino)-2,2-dimethylpropyl]benzamide], the melting point lay in the range of 101 to 103 °C. Also, in data set [1] (Cavia porcellus), the EC50 was 1.6 µM. Besides, in data set [1] (setting [4]), the Emax is 74%.

As for `O=C(NC(NC(=S)Nc1cccnc1)C(F)(F)F)c1ccc(Cl)cc1` (stereo not drawn) [Example 19, 4-chloro-N-(2,2,2-trifluoro-1-{[(3-pyridinylamino)carbothioyl]amino}ethyl)benzamide], the melting point was in the range of 147 to 149 °C. In data set [1] (Cavia porcellus), this molecule registered an EC50 of 0.06 µM. In addition, the Emax in data set [1] (setting [4]) amounted to 117%.

Molecule `CCC(NC(=O)c1ccc(Cl)cc1)NC(=NC#N)Nc1cccnc1` (stereo not drawn) [Example 84, 4-chloro-N-(1-{[(cyanoimino)(3-pyridinylamino)methyl]amino}propyl)benzamide] yielded a melting point of 181 to 183 °C. For the same molecule, in data set [1] (Cavia porcellus), the EC50 turned out to be 6 µM. Besides, the Emax in data set [1] (setting [4]) turned out to be 69%.

`Cc1ccc(C(=O)NC(N2CCN(c3cccc(F)c3)C2=S)C(Cl)(Cl)Cl)cc1` (stereo not drawn) [Example 37, 4-methyl-N-{2,2,2-trichloro-1-[3-(3-fluorophenyl)-2-thioxo-1-imidazolidinyl]ethyl}benzamide]: the melting point was 184 to 186 °C. Moreover, the EC50 in data set [1] (Cavia porcellus) is 0.78 µM. This molecule showed an Emax in data set [1] (setting [4]) of 85%.

The molecule `Cc1ccc(C(=O)NC(C)NC(=S)Nc2cccc([N+](=O)[O-])c2)cc1` (stereo not drawn) [Example 29, 4-methyl-N-(1-{[(3-nitroanilino)carbothioyl]amino}ethyl)benzamide] had a melting point of 172 to 175 °C. The same molecule returned an EC50 in data set [1] (Cavia porcellus) of 1 µM. In data set [1] (setting [4]), this molecule registered an Emax of 28%.

As usually defined, the Emax is the greatest response seen or fitted, relative to the assay's reference. Broadly, the melting point is the temperature, or range, at which the solid turns liquid.
